Measured values published in patent publication US12447145B2, “Compositions and methods for treating inflammatory neurological disorders” (Georgetown University, priority 2018, dated 2025).

Columns and labels:
[1] = tested on: EAE mice; assay: Experimental autoimmune encephalomyelitis (EAE) mouse model, clinical scoring; format: in vivo, C57BL/6 female mice
Excerpt: C57BL/6 female mice (Charles River) at age 10-12 weeks were acclimatized for 7 days prior to inducing experimental autoimmune encephalomyelitis (EAE). EAE was induced using the EAE kit (Hooke Laboratories, Cat. No: EK-2110) according to the Hooke Laboratories protocol (on the world wide web at hookelabs.com/protocols/eaeAI_C57BL6.html). Briefly, mice were immunized by an emulsion of MOG35-55 in complete Freund's adjuvant (CFA) injected subcutaneously at two sites (Day 0), followed by administration of pertussis toxin (PTX) intraperitoneally, first on the day of immunization (Day 0), and then again the following day (Day 1). Approximately 115 ng of PTX for each of the two PTX administrations were used.
The mice were scored blindly and daily from EAE Day 7 until at least EAE Day 30 according to the protocol from Hooke Laboratories. The scoring system used was as follows: 0.0=no obvious changes in motor function; 0.5=tip of tail is limp; 1.0=limp tail; 1.5=limp tail and hind leg inhibition; 2.0=limp tail and weakness of hind legs or signs of head tilting; 2.5=limp tail and dragging of hind legs or strong head tilting; 3.0=limp tail and complete paralysis of hind legs or limp tail with paralysis of one front and one hind leg; 3.5=limp tail and complete paralysis of hind legs plus mouse unable to right itself when placed on its side; 4.0=limp tail, complete hind leg and partial front leg paralysis, mouse is minimally moving but appears alert and feeding; 4.5=complete hind and partial front leg paralysis, no movement around the cage, mouse is not alert; 5.0=mouse is found dead due to paralysis or mouse is euthanized due to severe paralysis
The clinical scores and weight of mice were recorded daily until the end of experiment. […] For each experiment, 8 to 10 mice from each group were analyzed.
EAE mice were treated with L-type amino acid transporter 1 (LAT1) inhibitor JPH203 dihydrochloride starting at scores 1.0 and 3.0. […] Clinical scores of the animals from each group were recorded at 1-7 days after the first injection.

[2] = tested on: CNS lesions (lysolecithin-induced focal demyelination); assay: Lysolecithin-induced focal demyelination of the spinal cord, immunohistochemistry of lesions; format: in vivo, mice
Experimental: Focal demyelination was induced by injecting 1% lysolecithin (Sigma-Aldrich) into the spinal cord ventral funiculus of 8-12 weeks old C57B1/6 mice of either sex. At 5 and 10 days post lesion (dpl), mice were perfused intracardially with 4% (w/v) paraformaldehyde (PFA; Sigma). To perform IHC, mice were perfusion-fixed with 4% PFA (Sigma). Spinal cords were dissected and postfixed for 30 min in 4% PFA at 4° C. and cryoprotected in 20% (w/v) sucrose (Sigma) in PBS overnight before freezing in O.C.T. on the surface of dry ice. Twelve-micrometer-thick spinal cord sections were cut using cryostat (Leica CM1900), collected on SuperFrostPlus slides (VWR International), and allowed to dry for 30 min before storing at −80° C. For IHC, sections were incubated in blocking solution (0.1% Triton™ X-100 and 10% FBS in PBS) for 1 h at room temperature (RT). Primary antibodies were diluted in blocking solution and applied overnight at 4° C. Fluorescent dye-conjugated secondary antibodies were obtained from Life Technologies and used according to the manufacturer's instruction. Focal demyelination was induced by injecting 1% lysolecithin, JPH203 or PBS control was injected via intraperitoneal from 5-9 dpl. Mice were sacrificed at 10 dpl by intracardial perfusion with 4% PFA (Sigma). IHC was performed as previously described. Twelve-micrometer-thick fixed spinal cord sections were cut using cryostat (Leica CM1900), collected on SuperFrostPlus slides (VWR International), and allowed to dry for 30 min before storing at −80° C. For IHC, sections were incubated in blocking solution (0.1% Triton™ X-100 and 10% FBS in PBS) for 1 h at room temperature (RT). Primary antibodies were diluted in blocking solution and applied overnight at 4° C. Sources and dilutions of primary antibodies were as follows: rabbit anti-Olig2 (1:300; Millipore), mouse anti-CC1 (1:200; Sigma). Fluorescent dye-conjugated secondary antibodies were obtained from Life Technologies and used according to the manufacturer's instruction. Antigen retrieval was used for Olig2 and mouse on mouse antigen retrieval with M.O.M.™ kit (Vector Laboratories) for CC1. DAPI nuclear counterstain was used before mounting sections with fluoromount-G (Southern-Biotech). ImageJ (NIH) was used to quantify Olig2+ CC1+ cells.

## Nc1cc(COc2c(Cl)cc(C[C@H](N)C(=O)O)cc2Cl)c2oc(-c3ccccc3)nc2c1 [JPH203, (S)-2-Amino-3-(4-((5-amino-2-phenylbenzo[d]oxazol-7-yl)methoxy)-3,5-dichlorophenyl) propanoic acid]
[1]; prophylactic treatment starting at score 1.0, PBS controls progressed to score 3.0 or higher, FIG. 2B
  progression of EAE to higher scores: prevented progression of EAE to higher scores
[1]; treatment starting at clinical score 1.0, 25 mg/kg intraperitoneal daily for 5 days, compared to PBS control, FIG. 2B
  motor recovery (clinical score), prophylactic efficacy: motor recovery
[1]; treatment starting at clinical score 3.0, 25 mg/kg intraperitoneal daily for 5 days, compared to PBS control, FIG. 2A
  motor recovery (clinical score), treatment efficacy: motor recovery
[2]; 10 dpl, control lesion macrophages rounded amoeboid/foamy, FIG. 3F/3G
  macrophage morphology in lesion at higher magnification: more ramified appearance, indicating reduced inflammatory activity
[2]; 10 dpl, versus control lesion, FIG. 3F/3G
  iNOS labeling of macrophages at higher magnification: very little iNOS labeling
[2]; intraperitoneal injection 5-9 dpl, analysis at 10 dpl, compared to PBS control, FIG. 3A/3B
  number of mature oligodendrocytes in lesions: increased number of mature oligodendrocytes in lesions
[2]; intraperitoneal injection 5-9 dpl, analysis at 10 dpl, versus PBS control, FIG. 3C, P<0.05
  increase in oligodendrocytes (Olig2+ CC1+ cells), quantification: 2 fold
[2]; intraperitoneal injection 5-9 dpl, analysis at 10 dpl, versus PBS treated lesion, FIG. 3D/3E
  pro-inflammatory iNOS expression in lesion (Iba1+iNOS+ microglia/macrophages): dramatically reduced pro-inflammatory iNOS expression
